From patent publication US10519191B2, “Bile acid analogs as FXR/TGR5 agonists and methods of use thereof” (Enanta Pharmaceuticals, Inc., priority 2014, dated 2019)
Read-outs that look alike come from different tables or passages of the source.

Target: T1, human FXR (NR1H4) (Homo sapiens, UniProt Q96RI1)
T1 construct: host or cells: CHO (Chinese hamster ovary) reporter cells
T1 sequence (Q96RI1 1-486): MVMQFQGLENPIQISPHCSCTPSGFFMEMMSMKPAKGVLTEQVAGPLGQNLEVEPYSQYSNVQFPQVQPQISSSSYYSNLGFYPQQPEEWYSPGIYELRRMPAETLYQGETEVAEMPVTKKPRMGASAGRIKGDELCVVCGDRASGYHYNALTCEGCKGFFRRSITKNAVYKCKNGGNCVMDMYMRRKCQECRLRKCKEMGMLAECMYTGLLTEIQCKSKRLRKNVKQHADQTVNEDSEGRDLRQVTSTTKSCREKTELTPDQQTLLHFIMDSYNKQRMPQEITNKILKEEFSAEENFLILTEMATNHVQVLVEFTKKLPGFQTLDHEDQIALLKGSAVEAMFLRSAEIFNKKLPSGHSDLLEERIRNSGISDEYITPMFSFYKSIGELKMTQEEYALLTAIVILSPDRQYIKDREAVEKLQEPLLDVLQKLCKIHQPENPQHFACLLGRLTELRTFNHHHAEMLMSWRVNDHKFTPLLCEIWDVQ
Test: Human FXR (NR1H4) Assay (Gal4 promoter driven luciferase reporter, CHO cells)
Assay type: cell-based
Source text: Assays Human FXR (NR1H4) Assay
Determination of a ligand mediated Gal4 promoter driven transactivation to quantify ligand binding mediated activation of FXR. FXR Reporter Assay kit purchased from Indigo Bioscience (Catalogue number: IB00601) to determine the potency and efficacy of compound developed by Enanta that can induce FXR activation. The principle application of this reporter assay system is to quantify functional activity of human FXR. The assay utilizes non-human mammalian cells, CHO (Chinese hamster ovary) cells engineered to express human NR1H4 protein (referred to as FXR). Reporter cells also incorporate the cDNA encoding beetle luciferase which catalyzes the substrates and yields photon emission. Luminescence intensity of the reaction is quantified using a plate-reading luminometer, Envision. Reporter Cells include the luciferase reporter gene functionally linked to an FXR responsive promoter. Thus, quantifying changes in luciferase expression in the treated reporter cells provides a sensitive surrogate measure of the changes in FXR activity. […] The assay is according to the manufacturer's instructions. In brief, the assay was performed in white, 96 well plates using final volume of 100 ul containing cells with different doses of compounds. Retrieve Reporter Cells from −80° C. storage. Perform a rapid thaw of the frozen cells by transferring a 10 ml volume of 37° C. cell recovery medium into the tube of frozen cells. Recap the tube of Reporter Cells and immediately place it in a 37° C. water bath for 5-10 minutes. Retrieve the tube of Reporter Cell Suspension from the water bath. Sanitize the outside surface of the tube with a 70% alcohol swab, and then transfer it into the cell culture hood. Dispense 90 μl of cell suspension into each well of the 96-well Assay Plate. Transfer the plate into 37° C. incubator, allowing the cells adherent to the bottom of the well. Dilute compounds in Dilution Plate (DP), and administrate to cells at Assay Plate (AP). DMSO content of the samples was kept at 0.2%. Cells were incubated for additional 22 hours before luciferase activities were measured. Thirty minutes before intending to quantify FXR activity, remove Detection Substrate and Detection Buffer from the refrigerator and place them in a low-light area so that they may equilibrate to room temperature. Remove the plate's lid and discard all media contents by ejecting it into an appropriate waste container. Gently tap the inverted plate onto a clean absorbent paper towel to remove residual droplets. Cells will remain tightly adhered to well bottoms. Add 100 μl of luciferase detection reagent to each well of the assay plate. Allow the assay plate to rest at room temperature for at least 5 minutes following the addition of LDR. Set the instrument (Envision) to perform a single 5 second “plate shake” prior to reading the first assay well. Read time may be 0.5 second (500 mSec) per well.

[1] = efficacy normalized to CDCA set as 100%

Structure (SMILES) | EC50 [nM] | Efficacy (%) [1] [%] | Efficacy (%)
CC[C@H]1[C@@H](O)[C@@H]2[C@H](CC[C@]3(C)[C@@H]([C@H](C)CC=CS(N)(=O)=O)CC[C@@H]23)[C@@]2(C)CC[C@@H](O)C[C@@H]12 [Example 17] | 100 to 1000 | 147 | –
CCOP(=O)(CC[C@@H](C)[C@H]1CC[C@H]2[C@@H]3[C@H](O)[C@H](CC)[C@@H]4C[C@H](O)CC[C@]4(C)[C@H]3CC[C@]12C)c1ccccc1 (stereo partly drawn) [Example 29] | 1000 to 10000 | – | 49.
CCOP(=O)(CCC[C@@H](C)[C@H]1CC[C@H]2[C@@H]3[C@H](O)[C@H](CC)[C@@H]4C[C@H](O)CC[C@]4(C)[C@H]3CC[C@]12C)OCC [Example 27] | 1000 to 10000 | – | 246
CC[C@H]1[C@@H](O)[C@@H]2[C@H](CC[C@]3(C)[C@@H]([C@H](C)CCCOP(=O)(Oc4ccccc4)c4ccccc4)CC[C@@H]23)[C@@]2(C)CC[C@@H](O)C[C@@H]12 (stereo partly drawn) [Example 26] | 1000 to 10000 | – | 129
CC[C@H]1[C@@H](O)[C@@H]2[C@H](CC[C@]3(C)[C@@H]([C@H](C)CCOP(=O)(O)c4ccccc4)CC[C@@H]23)[C@@]2(C)CC[C@@H](O)C[C@@H]12 [Example 24] | 1000 to 10000 | 75 | –
CC[C@H]1[C@@H](O)[C@@H]2[C@H](CC[C@]3(C)[C@@H]([C@H](C)CCS(=O)(=O)N(Cc4ccc(OC)cc4)Cc4ccc(OC)cc4)CC[C@@H]23)[C@@]2(C)CC[C@@H](O)C[C@@H]12 [Example 12] | 1000 to 10000 | 1 | –
CC[C@H]1[C@@H](O)[C@@H]2[C@H](CC[C@]3(C)[C@@H]([C@H](C)/C=C/S(=O)(=O)NCc4ccc(OC)cc4)CC[C@@H]23)[C@@]2(C)CC[C@@H](O)C[C@@H]12 [Example 18] | 1000 to 10000 | 16 | –
CC[C@H]1[C@@H](O)[C@@H]2[C@H](CC[C@]3(C)[C@@H]([C@H](C)CCCCS(N)(=O)=O)CC[C@@H]23)[C@@]2(C)CC[C@@H](O)C[C@@H]12 [Example 15] | 100 to 1000 | 195 | –
CC[C@H]1[C@@H](O)[C@@H]2[C@H](CC[C@]3(C)[C@@H]([C@H](C)CCS(=O)(=O)[O-])CC[C@@H]23)[C@@]2(C)CC[C@@H](O)C[C@@H]12.[Na+] [Example 11] | – | – | 1
CC(C)N(O)C(=O)CC[C@@H](C)[C@H]1CC[C@H]2[C@@H]3[C@H](O)C[C@@H]4C[C@H](O)CC[C@]4(C)[C@H]3CC[C@]12C [Example 2] | > 10000 | 13 | –
C[C@H](CCC(=O)N(O)C1CCCCC1)[C@H]1CC[C@H]2[C@@H]3[C@H](O)C[C@@H]4C[C@H](O)CC[C@]4(C)[C@H]3CC[C@]12C [Example 3] | > 10000 | 2 | –
CC[C@H]1[C@@H](O)[C@@H]2[C@H](CC[C@]3(C)[C@@H]([C@H](C)CC=CCS(N)(=O)=O)CC[C@@H]23)[C@@]2(C)CC[C@@H](O)C[C@@H]12 [Example 14] | 100 to 1000 | 167 | –
CC[C@H]1[C@@H](O)[C@@H]2[C@H](CC[C@]3(C)[C@@H]([C@H](C)CCCc4cc(F)c(O)c(F)c4)CC[C@@H]23)[C@@]2(C)CC[C@@H](O)C[C@@H]12 [Example 9] | 1000 to 10000 | 271 | –
CC[C@H]1[C@@H](O)[C@@H]2[C@H](CC[C@]3(C)[C@@H]([C@H](C)CCCS(=O)(=O)[O-])CC[C@@H]23)[C@@]2(C)CC[C@@H](O)C[C@@H]12.[Na+] [Example 10] | 1000 to 10000 | 4 | –
CC[C@H]1[C@@H](O)[C@@H]2[C@H](CC[C@]3(C)[C@@H]([C@H](C)CCCCS(=O)(=O)N(C)Cc4ccccc4)CC[C@@H]23)[C@@]2(C)CC[C@@H](O)C[C@@H]12 [Example 16] | 1000 to 10000 | 97 | –
CC[C@H]1[C@@H](O)[C@@H]2[C@H](CC[C@]3(C)[C@@H]([C@H](C)CCS(N)(=O)=O)CC[C@@H]23)[C@@]2(C)CC[C@@H](O)C[C@@H]12 [Example 13] | 1000 to 10000 | 118 | –
CC[C@H]1[C@@H](O)[C@@H]2[C@H](CC[C@]3(C)[C@@H]([C@H](C)/C=C/S(N)(=O)=O)CC[C@@H]23)[C@@]2(C)CC[C@@H](O)C[C@@H]12 [Example 19] | 1000 to 10000 | 3 | –
CC[C@H]1[C@@H](O)[C@@H]2[C@H](CC[C@]3(C)[C@@H]([C@H](C)CCS(=O)(=O)NC(C)=O)CC[C@@H]23)[C@@]2(C)CC[C@@H](O)C[C@@H]12 [Example 21] | 1000 to 10000 | 74 | –
CC[C@H]1[C@@H](O)[C@@H]2[C@H](CC[C@]3(C)[C@@H]([C@H](C)CCC(=O)N(O)Cc4ccccc4)CC[C@@H]23)[C@@]2(C)CC[C@@H](O)C[C@@H]12 [Example 4] | 1000 to 10000 | 270 | –
CCOP(=O)(CCC[C@@H](C)[C@H]1CC[C@H]2[C@@H]3[C@H](O)[C@H](CC)[C@@H]4C[C@H](O)CC[C@]4(C)[C@H]3CC[C@]12C)c1ccccc1 (stereo partly drawn) [Example 28] | 100 to 1000 | – | 265
CC[C@H]1[C@@H](O)[C@@H]2[C@H](CC[C@]3(C)[C@@H]([C@H](C)CCS(=O)(=O)NCc4ccc(OC)cc4)CC[C@@H]23)[C@@]2(C)CC[C@@H](O)C[C@@H]12 [Example 20] | > 10000 | 60 | –
CC[C@H]1[C@@H](O)[C@@H]2[C@H](CC[C@]3(C)[C@@H]([C@H](C)CCS(=O)(=O)NC(=O)c4ccccc4)CC[C@@H]23)[C@@]2(C)CC[C@@H](O)C[C@@H]12 [Example 22] | 1000 to 10000 | 249 | –
CC[C@H]1[C@@H](O)[C@@H]2[C@H](CC[C@]3(C)[C@@H]([C@H](C)CCCS(N)(=O)=O)CC[C@@H]23)[C@@]2(C)CC[C@@H](O)C[C@@H]12 [Example 23] | 1000 to 10000 | 202 | –
